Where two headings read alike, the source gives them in different places.
What was measured:
α4β2* nAChRs = α4β2* nAChRs (Mus musculus, UniProt O70174+Q9ERK7); test: biochemical; type: biochemical; settings: for Emax: relative to nicotine; for EC50: read-out: Neurotransmitter release EC50
Description: (§1) Regions of interest were dissected from fresh mouse brains and homogenized in ice-cold isotonic sucrose (0.32 M), buffered with HEPES (5 mM, pH 7.5). The suspension was centrifuged at 12,000 × g for 20 min.
Superfusion proceeded at 0.7 mL/min for 10 min before stimulation with agonist for 20 s. Selected aliquots were perfused with α-CtxMII (50 nM) for 3 min immediately before stimulation. […] Fractions (∼0.1 mL) were collected into 96-well plates at 10 s intervals for 4 min (starting ∼1 min before stimulation).

α3β4* nAChRs [1] = target: T1, α3β4* nAChRs (Mus musculus, UniProt Q8R493+Q8R4G9); test: [3H]ACh release from interpeduncular nucleus synaptosomes; type: biochemical; settings: IPN synaptosomes
T1 construct: from tissue
Description: as §1, with “min. The pellet was re-suspended in the appropriate uptake buffer ([Grady et al., 2001]; [Salminen et al., 2004]; [Marks et al., 2006]) and used immediately.” for “min.”
Previously published methods for [^3H]ACh release from crude IPN synaptosomes were followed ([Grady et al., 2001]). Agonist-stimulated ^86Rb^+ efflux from synaptosomes was measured using previously described methods ([Marks et al., 1999], [2007]).

α3β4* nAChRs [2] = target: T1, α3β4* nAChRs; test: [125I]epibatidine binding, IPN membranes from β2KO mice
Description: The methods used for preparing brain membranes in hypotonic buffer have been described previously ([Marks et al., 1998], [2007]). Brain membrane preparations were stored as pellets under buffer at -70°C or used immediately. We followed previously published methods for [^125I]epibatidine binding and analysis ([Grady et al., 2010]).

male Wistar rats = test: Rat responding for food rewards; type: in vivo; settings: 0.01, 0.025, 0.05, 0.08 mg/kg ip, 20 min before session
Description: Operant chambers (Med Associates, East Fairfield, VT, United States) were used for food delivery and the intravenous self-administration (IVSA) of nicotine.
For IV catheter implantation, the rats were anesthetized using 1–3% isoflurane inhalation in oxygen and surgically prepared with catheters in the left jugular vein ([Kenny et al., 2008]). The catheter was passed subcutaneously to a polyethylene assembly mounted on the animals’ back. Prior to training, rats were food-restricted so that their body weight was approximately ∼85% that of free-feeding rats. They were then trained to press an active lever for 45 mg food pellets on a fixed ratio 5 time-out 20 s (FR5TO20) schedule of reinforcement. […] Pressing this lever was recorded but was not associated with scheduled consequence. Rats were permitted to respond for food rewards until a reliable response was achieved, defined as >90 pellets earned per 1 h session for three consecutive sessions. Rats were then permitted to respond for food (n = 8) or for nicotine infusions (n = 9) during 1 h daily sessions under the FR5TO20 schedule. […]
Twenty min after injection, rats were placed in the operant boxes and responding for food rewards or nicotine infusions was recorded. […]

WT mice = test: Hot plate assay; type: in vivo, mouse; settings: 0.3 mg/kg ip each, 55°C hot plate, p < 0.05
Description: Mice were again habituated to the experimental room for ≥2 h prior to testing. […] This apparatus is a heated metal plate, maintained at 55°C, enclosed by a clear acrylic plastic cylinder (∼10 cm in diameter), within which the mouse is free to move. […] If the mouse urinates during the assay, it is immediately removed from the hot plate. The time that the mouse remains on the hot plate prior to showing signs of discomfort is recorded. Doses were administered using a Latin-square crossover design. A day without testing occurred between each test.

[3] = system: T2, Adenosine Transporter (h); test: NovaScreen competition binding; parameters: species or system human; settings: 1 µM
T2 construct: PerkinElmer – Caliper Life Sciences (NovaScreen service)

Adenosine, A1 = system: T3, Adenosine, A1; test: NovaScreen competition binding; settings: 1 µM
T3 construct: PerkinElmer – Caliper Life Sciences (NovaScreen service)

Adrenergic, Beta 2 (h) = test: NovaScreen competition binding; parameters: species or system human; settings: 1 µM
Dopamine, D2s (h) = test: NovaScreen competition binding; parameters: species or system human; settings: 1 µM
GABA A, Agonist Site = test: NovaScreen competition binding; settings: 1 µM
[4] = system: Glutamate, AMPA Site (Ionotropic); test: NovaScreen competition binding; settings: 1 µM
[5] = target: Glutamate,NMDA,Glycine (Stry-insens Site) (Ionot (Rattus norvegicus, UniProt P35439)); test: NovaScreen competition binding
Opioid, Mu (h) = test: NovaScreen competition binding; parameters: species or system human; settings: 1 µM
Serotonin, 5HT1D = test: NovaScreen competition binding; settings: 1 µM
[6] = system: T4, Thromboxane A2 (h) [SQ 29,548]; test: NovaScreen competition binding; parameters: species or system human; settings: 1 µM
T4 construct: PerkinElmer – Caliper Life Sciences (NovaScreen service)

Bradykinin, BK2 = system: T5, Bradykinin, BK2; test: NovaScreen competition binding; settings: 1 µM
T5 construct: PerkinElmer – Caliper Life Sciences (NovaScreen service)

Sequence of α4β2* nAChRs (O70174 31-629): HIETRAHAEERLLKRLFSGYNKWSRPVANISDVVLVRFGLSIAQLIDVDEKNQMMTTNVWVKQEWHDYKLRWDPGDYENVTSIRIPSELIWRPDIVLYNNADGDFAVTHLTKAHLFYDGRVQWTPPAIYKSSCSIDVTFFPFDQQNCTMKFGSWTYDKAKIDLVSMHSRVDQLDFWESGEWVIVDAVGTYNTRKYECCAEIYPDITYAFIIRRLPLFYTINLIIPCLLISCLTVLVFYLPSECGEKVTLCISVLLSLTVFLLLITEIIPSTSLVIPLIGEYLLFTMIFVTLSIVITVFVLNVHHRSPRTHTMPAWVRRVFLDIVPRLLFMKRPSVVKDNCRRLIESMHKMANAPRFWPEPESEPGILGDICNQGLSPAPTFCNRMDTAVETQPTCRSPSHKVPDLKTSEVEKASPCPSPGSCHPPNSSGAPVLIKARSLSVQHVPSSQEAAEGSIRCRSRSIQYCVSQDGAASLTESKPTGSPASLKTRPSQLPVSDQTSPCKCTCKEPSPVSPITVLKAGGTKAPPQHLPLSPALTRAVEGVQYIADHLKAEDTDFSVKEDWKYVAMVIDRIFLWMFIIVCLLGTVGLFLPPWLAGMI
Sequence of α4β2* nAChRs (Q9ERK7 26-501): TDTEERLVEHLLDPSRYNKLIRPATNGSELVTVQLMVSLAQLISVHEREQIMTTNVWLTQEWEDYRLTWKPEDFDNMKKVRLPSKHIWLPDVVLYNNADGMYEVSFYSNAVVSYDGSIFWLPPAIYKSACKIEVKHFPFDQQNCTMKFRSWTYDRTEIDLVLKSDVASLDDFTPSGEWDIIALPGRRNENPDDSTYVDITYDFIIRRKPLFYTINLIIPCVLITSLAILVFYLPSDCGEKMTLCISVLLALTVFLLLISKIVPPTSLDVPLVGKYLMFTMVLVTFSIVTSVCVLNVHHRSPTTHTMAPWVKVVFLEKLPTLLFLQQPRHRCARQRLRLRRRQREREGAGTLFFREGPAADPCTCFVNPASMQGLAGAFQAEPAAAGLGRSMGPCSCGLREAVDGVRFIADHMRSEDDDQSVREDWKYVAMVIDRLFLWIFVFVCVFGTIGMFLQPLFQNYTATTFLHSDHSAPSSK
T1 sequence (Q8R4G9 26-499): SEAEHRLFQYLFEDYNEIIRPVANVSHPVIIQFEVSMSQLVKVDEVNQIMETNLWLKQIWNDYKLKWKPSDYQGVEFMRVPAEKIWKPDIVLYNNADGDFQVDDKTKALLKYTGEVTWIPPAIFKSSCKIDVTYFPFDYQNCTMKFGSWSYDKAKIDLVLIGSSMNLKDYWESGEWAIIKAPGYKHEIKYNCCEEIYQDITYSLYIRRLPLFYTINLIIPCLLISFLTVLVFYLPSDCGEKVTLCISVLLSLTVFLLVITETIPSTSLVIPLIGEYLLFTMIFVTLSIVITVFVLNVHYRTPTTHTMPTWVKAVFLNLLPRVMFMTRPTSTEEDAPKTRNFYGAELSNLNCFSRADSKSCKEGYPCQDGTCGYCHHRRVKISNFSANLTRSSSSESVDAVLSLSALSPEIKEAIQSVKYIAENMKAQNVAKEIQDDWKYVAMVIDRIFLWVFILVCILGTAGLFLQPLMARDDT
T1 sequence (Q8R493 21-495): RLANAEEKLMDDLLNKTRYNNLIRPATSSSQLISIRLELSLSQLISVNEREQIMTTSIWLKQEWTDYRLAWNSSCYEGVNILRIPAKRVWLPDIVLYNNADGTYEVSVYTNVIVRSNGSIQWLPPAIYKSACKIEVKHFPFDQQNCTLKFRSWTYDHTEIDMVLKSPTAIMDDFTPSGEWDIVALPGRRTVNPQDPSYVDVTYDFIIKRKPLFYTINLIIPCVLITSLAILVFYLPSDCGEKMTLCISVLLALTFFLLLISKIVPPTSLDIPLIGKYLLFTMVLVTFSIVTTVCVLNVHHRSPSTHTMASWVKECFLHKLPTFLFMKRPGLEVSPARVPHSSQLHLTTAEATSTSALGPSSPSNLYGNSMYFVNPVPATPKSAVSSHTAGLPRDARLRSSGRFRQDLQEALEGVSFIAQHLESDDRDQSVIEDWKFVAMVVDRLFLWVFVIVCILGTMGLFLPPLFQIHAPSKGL
Sequence of Glutamate,NMDA,Glycine (Stry-insens Site) (Ionot (P35439 394-863 limits assumed): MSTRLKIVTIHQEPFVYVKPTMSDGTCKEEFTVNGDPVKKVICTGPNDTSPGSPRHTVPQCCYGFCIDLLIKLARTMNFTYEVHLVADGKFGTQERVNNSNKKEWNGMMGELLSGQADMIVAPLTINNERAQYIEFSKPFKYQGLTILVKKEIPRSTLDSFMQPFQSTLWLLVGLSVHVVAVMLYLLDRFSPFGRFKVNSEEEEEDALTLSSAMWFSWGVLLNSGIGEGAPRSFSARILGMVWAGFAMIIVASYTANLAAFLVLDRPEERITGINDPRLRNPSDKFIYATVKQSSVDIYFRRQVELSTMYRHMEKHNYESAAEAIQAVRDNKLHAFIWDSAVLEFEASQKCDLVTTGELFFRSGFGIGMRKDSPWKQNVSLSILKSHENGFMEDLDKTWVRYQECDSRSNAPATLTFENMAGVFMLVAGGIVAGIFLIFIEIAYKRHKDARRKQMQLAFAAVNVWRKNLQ

With C1=C(/c2cncnc2)CCCNCC/1 [TC299423, (E)-5-(pyrimidin-5-yl)-1,2,3,4,7,8-hexahydroazocine] the Emax (α4β2* nAChRs; read-out: Neurotransmitter release % Efficacy, WT striatal synaptosomes, single component) was 76 ± 5%, the Emax (α4β2* nAChRs; read-out: Neurotransmitter release % Efficacy, α5KO striatal synaptosomes) was 112 ± 9% and the EC50 (α4β2* nAChRs; WT striatal synaptosomes, single component) was 0.13 µM. The EC50 (α4β2* nAChRs; α5KO striatal synaptosomes) was 0.6 µM, the EC50 (α3β4* nAChRs [1]; read-out: Neurotransmitter release EC50 (converted)) was 8 µM and the Emax (α3β4* nAChRs [1]; relative to nicotine, read-out: Neurotransmitter release % Efficacy) was 100 ± 16%. The Ki (α3β4* nAChRs [2]) was 0.018 ± 0.0007 µM, the “Responding for food pellets vs vehicle” value (male Wistar rats) was “no statistically significant changes” and the “Antinociceptive effect compared with varenicline” value (WT mice) was “significantly greater than that of varenicline”. For the same compound, the Hit [3] was “FALSE”, the Inhibition ([3]; [3H]-NBTI) was 12.86% and the Hit (Adenosine, A1) was “FALSE”. For the same compound, the Inhibition (Adenosine, A1; [3H]CPX) was 7.85%, the Hit (Adrenergic, Beta 2 (h)) was “FALSE” and the Inhibition (Adrenergic, Beta 2 (h); [125]I-Iodo-cyanopindolol) was -8.25%. The Hit (Dopamine, D2s (h)) was “FALSE”, the Inhibition (Dopamine, D2s (h); [3H]-Raclopride) was -21.17% and the Hit (GABA A, Agonist Site) was “FALSE”. For the same compound, the Inhibition (GABA A, Agonist Site; [3H]GABA) was -2.66%, the Hit [4] was “FALSE” and the Inhibition ([4]; [3H]AMPA) was -1.26%. For the same compound, the Hit ([5]; 1 µM) was “FALSE”, the inhibition at 1 µM ([5]; [3H]-MDL-105,519) was 4.34% and the Hit (Opioid, Mu (h)) was “FALSE”. For the same compound, the Inhibition (Opioid, Mu (h); [3H]-Diprenorphine) was -6.43%, the Hit (Serotonin, 5HT1D) was “FALSE” and the Inhibition (Serotonin, 5HT1D; [3H]5-CT) was 9.99%. For the same compound, the Hit [6] was “FALSE”, the Inhibition ([6]; 3H SQ 29,548) was 3.14% and the Hit (Bradykinin, BK2) was “FALSE”. The Inhibition (Bradykinin, BK2; [3H]Bradykinin) was 32.29%.

Reference: article PMC5626944 (Frontiers in Pharmacology, 2017)
